{"source": "patent US6979686B1", "about": "“Substituted pyrazoles as p38 kinase inhibitors” (Pharmacia Corporation, priority 2001, dated 2005)", "key": {"[1]": {"system": "TNF-α, U937 human histiocytic lymphoma cell line", "test": "LPS stimulation of TNF production by U937 cells", "assay_type": "cell-based", "conditions": "for inhibition at 1 µM: U-937, @ 1.0 uM, read-out: U937 Cell % inhib @ conc.; for U937 Cell % inhib @ conc. (uM): @ 1.0 uM", "description": "Maintenance and Differentiation of the U937 Human Histiocytic Lymphoma Cell Line:\nFifty million cells in 100 ml media were induced to terminal monocytic differentiation by 24 hour incubation with 20 ng/ml phorbol 12-myristate 13-acetate (Sigma). The cells were washed by centrifugation (200×g for 5 min) and resuspended in 100 ml fresh medium. After 24-48 hours, the cells were harvested, centrifuged, and resuspended in culture medium at 2 million cells/ml.\nLPS Stimulation of TNF Production by U937 Cells:\nCompounds were prepared as 10 mM stock solutions in DMSO and diluted in culture medium to yield a final DMSO concentration of 0.1% in the cell assay. LPS (E coli, 100 ng/ml final concentration) was then added at a volume of 0.02 ml. After 4 hour incubation at 37° C., the amount of TNF-α released in the culture medium was quantitated by ELISA. Inhibitory potency is expressed as IC50 (μM).\nIn vitro whole cell assay for measuring the ability of the compounds to inhibit TNF production in human U937 cells stimulated with LPS are shown in the column identified as: • “U937 Cell IC50, uM or % inhib @ conc., (uM)”"}, "human p38 kinase alpha": {"target": "T1, human p38 kinase alpha (Homo sapiens, UniProt Q16539)", "T1 construct": "GST (N, cleaved yes); made in house; host or cells: E. coli DH10B", "T1 sequence (Q16539 whole entry)": "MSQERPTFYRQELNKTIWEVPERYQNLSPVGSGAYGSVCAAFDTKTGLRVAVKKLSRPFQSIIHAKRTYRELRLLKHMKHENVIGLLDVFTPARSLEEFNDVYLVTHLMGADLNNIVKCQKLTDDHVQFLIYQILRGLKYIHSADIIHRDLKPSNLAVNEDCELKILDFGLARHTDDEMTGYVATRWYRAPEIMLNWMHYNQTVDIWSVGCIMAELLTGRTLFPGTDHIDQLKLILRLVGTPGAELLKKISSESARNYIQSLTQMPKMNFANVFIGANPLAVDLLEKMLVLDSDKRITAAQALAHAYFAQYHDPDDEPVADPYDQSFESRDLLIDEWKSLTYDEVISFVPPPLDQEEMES", "test": "p38 kinase in vitro assay, phosphorylation of biotinylated PHAS-I with 32P-ATP", "assay_type": "biochemical", "conditions": "for inhibition at 1 µM: read-out: P38 alpha kinase % inhib @ conc.; for inhibition at 1 µM / P38 alpha kinase % inhib @ conc. (uM): @ 1.0 uM"}, "[2]": {"conditions": "Homo sapiens, U-937, TNF production, human U937 cells stimulated with LPS, read-out: U937 Cell IC50"}, "[3]": {"conditions": "in vitro P38-alpha kinase, read-out: P38 alpha kinase IC50"}, "[4]": {"conditions": "Homo sapiens, TNF production, U937 cells stimulated with LPS"}, "[5]": {"conditions": "in vitro P38-alpha kinase inhibition, read-out: P38 alpha kinase IC50"}, "[6]": {"conditions": "TNF production in human U937 cells stimulated with LPS"}, "[7]": {"conditions": "Homo sapiens, U-937, TNF production in human U937 cells stimulated with LPS, read-out: U937 Cell IC50"}, "[8]": {"conditions": "Homo sapiens, TNF production, LPS-stimulated U937 cells"}, "[9]": {"conditions": "@ 10.0 uM, TNF production, LPS-stimulated U937 cells"}}, "note": "Like-named read-outs stand apart in the source and are kept apart here."}
{"molecule": "O=C(NCCCc1[nH]nc(-c2ccc(F)cc2)c1-c1ccncc1)NCCCN1CCCC1=O", "note": "[Example B-1319]", "values": [{"measurement": "IC50", "setting": "[1]; [2]", "result": "> 1", "unit": "µM"}, {"measurement": "IC50", "setting": "human p38 kinase alpha; [3]", "result": 240, "unit": "nM"}]}
{"molecule": "O=C(NCc1[nH]nc(-c2ccc(F)cc2)c1-c1ccncc1)c1ccc(F)c(F)c1F", "note": "[Example B-0026]", "values": [{"measurement": "IC50", "setting": "[1]; [2]", "result": 3.27, "unit": "µM"}, {"measurement": "inhibition at 1 µM", "setting": "human p38 kinase alpha", "result": 96, "unit": "%"}]}
{"molecule": "Cc1ccc(NC(=O)Cn2nc(-c3ccc(F)cc3)c(-c3ccncc3)c2C)cc1", "note": "[Example B-2423]", "values": [{"measurement": "IC50", "setting": "[1]; TNF production, U937 cells stimulated with LPS, read-out: U937 Cell IC50, uM or % inhib @ conc. (uM): IC50", "result": "> 10", "unit": "µM"}, {"measurement": "P38 alpha kinase IC50, uM or % inhib @ conc. (uM): % inhib", "setting": "human p38 kinase alpha; @ 10.0 uM", "result": 85.0, "unit": "% @"}]}
{"molecule": "O=C(NCCCc1[nH]nc(-c2ccc(F)cc2)c1-c1ccncc1)NC1CN2CCC1CC2", "note": "(stereo not shown) [Example B-1309]", "values": [{"measurement": "IC50", "setting": "[1]; [2]", "result": "> 1", "unit": "µM"}, {"measurement": "IC50", "setting": "human p38 kinase alpha; [3]", "result": 45, "unit": "nM"}]}
{"molecule": "O=C(NCCc1[nH]nc(-c2ccc(F)cc2)c1-c1ccncc1)c1ccc(Cl)cc1", "note": "[Example B-1121]", "values": [{"measurement": "inhibition at 1 µM", "setting": "[1]; [4]", "result": 29, "unit": "%"}, {"measurement": "IC50", "setting": "human p38 kinase alpha; [5]", "result": 3580, "unit": "nM"}]}
{"molecule": "COc1ccc(NC(=O)NC(C)c2[nH]nc(-c3ccc(F)cc3)c2-c2ccncc2)c(OC)c1", "note": "(stereo not shown) [Example B-0599]", "values": [{"measurement": "U937 Cell % inhib @ conc. (uM)", "setting": "[1]; [6]", "result": 21.0, "unit": "% @"}, {"measurement": "IC50", "setting": "human p38 kinase alpha; [5]", "result": 4160, "unit": "nM"}]}
{"molecule": "Cc1[nH]nc(-c2cccc(Cl)c2)c1-c1ccncc1", "note": "[Example A-51]", "values": [{"measurement": "IC50", "setting": "[1]; Table 5, LPS-stimulated U937 cells, TNF-α, read-out: U937 Cell Assay IC50", "result": 0.074, "unit": "µM"}, {"measurement": "IC50", "setting": "human p38 kinase alpha; activated human p38 kinase alpha, PHAS-I substrate, 50 μM unlabeled ATP, read-out: p38 kinase IC50", "result": "< 100", "unit": "nM"}]}
{"molecule": "CNC(=O)NC(Cc1ccccc1)c1[nH]nc(-c2ccc(F)cc2)c1-c1ccncc1", "note": "(stereo not shown) [Example B-0775]", "values": [{"measurement": "IC50", "setting": "[1]; [7]", "result": "> 1", "unit": "µM"}, {"measurement": "IC50", "setting": "human p38 kinase alpha; [5]", "result": 600, "unit": "nM"}]}
{"molecule": "O=S(=O)(NC(Cc1ccccc1)c1[nH]nc(-c2ccc(F)cc2)c1-c1ccncc1)c1cccs1", "note": "(stereo not shown) [Example B-0765]", "values": [{"measurement": "inhibition at 1 µM", "setting": "[1]; Homo sapiens, TNF production in human U937 cells stimulated with LPS", "result": 29, "unit": "%"}, {"measurement": "IC50", "setting": "human p38 kinase alpha; [5]", "result": 300, "unit": "nM"}]}
{"molecule": "O=C(NCCCc1[nH]nc(-c2ccc(F)cc2)c1-c1ccncc1)NCCCN1CCCC1", "note": "[Example B-1318]", "values": [{"measurement": "inhibition at 1 µM", "setting": "[1]; [8]", "result": 1, "unit": "%"}, {"measurement": "IC50", "setting": "human p38 kinase alpha; [3]", "result": "< 100", "unit": "nM"}]}
{"molecule": "O=S(=O)(NCCCc1[nH]nc(-c2ccc(F)cc2)c1-c1ccncc1)c1ccccc1Br", "note": "[Example B-1259]", "values": [{"measurement": "IC50", "setting": "[1]; [2]", "result": 0.48, "unit": "µM"}, {"measurement": "IC50", "setting": "human p38 kinase alpha; [3]", "result": "< 100", "unit": "nM"}]}
{"molecule": "CC(NS(=O)(=O)C=Cc1ccccc1)c1[nH]nc(-c2ccc(F)cc2)c1-c1ccncc1", "note": "(stereo not shown) [Example B-0565]", "values": [{"measurement": "IC50", "setting": "[1]; [7]", "result": 0.59, "unit": "µM"}, {"measurement": "IC50", "setting": "human p38 kinase alpha; [5]", "result": 230, "unit": "nM"}]}
{"molecule": "Cc1noc(C)c1S(=O)(=O)NCCCc1[nH]nc(-c2ccc(F)cc2)c1-c1ccncc1", "note": "[Example B-1281]", "values": [{"measurement": "inhibition at 1 µM", "setting": "[1]; [8]", "result": 85, "unit": "%"}, {"measurement": "IC50", "setting": "human p38 kinase alpha; [3]", "result": "< 100", "unit": "nM"}]}
{"molecule": "O=C(NC(Cc1ccccc1)c1[nH]nc(-c2ccc(F)cc2)c1-c1ccncc1)c1ccccc1C(F)(F)F", "note": "(stereo not shown) [Example B-0844]", "values": [{"measurement": "inhibition at 1 µM", "setting": "[1]; [4]", "result": 25, "unit": "%"}, {"measurement": "IC50", "setting": "human p38 kinase alpha; [5]", "result": 400, "unit": "nM"}]}
{"molecule": "COc1cccc(CC(=O)NCCc2[nH]nc(-c3ccc(F)cc3)c2-c2ccncc2)c1", "note": "[Example B-1001]", "values": [{"measurement": "U937 Cell % inhib @ conc. (uM)", "setting": "[1]; TNF production, U937 cells stimulated with LPS", "result": 31.0, "unit": "% @"}, {"measurement": "P38 alpha kinase % inhib @ conc. (uM)", "setting": "human p38 kinase alpha", "result": 63.0, "unit": "% @"}]}
{"molecule": "O=C(NCc1[nH]nc(-c2ccc(F)cc2)c1-c1ccncc1)c1ccccc1I", "note": "[Example B-0005]", "values": [{"measurement": "IC50", "setting": "[1]; [2]", "result": 2.97, "unit": "µM"}, {"measurement": "inhibition at 1 µM", "setting": "human p38 kinase alpha", "result": 95, "unit": "%"}]}
{"molecule": "CC(NC(=O)c1cc(Cl)cc(Cl)c1)c1[nH]nc(-c2ccc(F)cc2)c1-c1ccncc1", "note": "(stereo not shown) [Example B-0675]", "values": [{"measurement": "U937 Cell % inhib @ conc. (uM)", "setting": "[1]; [6]", "result": 3.0, "unit": "% @"}, {"measurement": "IC50", "setting": "human p38 kinase alpha; [5]", "result": 5420, "unit": "nM"}]}
{"molecule": "COC(=O)[C@H](CCSC)NC(=O)Cn1nc(-c2ccc(F)cc2)c(-c2ccncc2)c1C", "note": "[Example B-2324]", "values": [{"measurement": "U937 Cell % inhib @ conc.", "setting": "[1]; [9]", "result": 36.0, "unit": "% @"}, {"measurement": "P38 alpha kinase % inhib @ conc.", "setting": "human p38 kinase alpha; @ 10.0 uM", "result": 58.0, "unit": "% @"}]}
{"molecule": "COc1ccccc1CCNC(=O)Cn1nc(-c2ccc(F)cc2)c(-c2ccncc2)c1C", "note": "[Example B-2315]", "values": [{"measurement": "U937 Cell % inhib @ conc.", "setting": "[1]; [9]", "result": 36.0, "unit": "% @"}, {"measurement": "IC50", "setting": "human p38 kinase alpha; [3]", "result": 490, "unit": "nM"}]}
{"molecule": "COc1ccc(CC(=O)NCCCc2[nH]nc(-c3ccc(F)cc3)c2-c2ccncc2)cc1", "note": "[Example B-1177]", "values": [{"measurement": "IC50", "setting": "[1]; TNF production, human U937 cells stimulated with LPS, read-out: U937 Cell IC50", "result": 1.16, "unit": "µM"}, {"measurement": "P38 alpha kinase % inhib @ conc. (uM)", "setting": "human p38 kinase alpha", "result": 70.0, "unit": "% @"}]}
{"molecule": "Cc1c(-c2ccncc2)c(-c2ccc(F)cc2)nn1CC(=O)NCCc1cccs1", "note": "[Example B-2279]", "values": [{"measurement": "U937 Cell % inhib @ conc.", "setting": "[1]; [9]", "result": 36.0, "unit": "% @"}, {"measurement": "IC50", "setting": "human p38 kinase alpha; [3]", "result": 320, "unit": "nM"}]}
{"molecule": "CNC(=O)CCC(NS(=O)(=O)Cc1ccccc1)c1[nH]nc(-c2ccc(F)cc2)c1-c1ccncc1", "note": "(stereo not shown) [Example B-0876]", "values": [{"measurement": "IC50", "setting": "[1]; [2]", "result": "> 1", "unit": "µM"}, {"measurement": "IC50", "setting": "human p38 kinase alpha; [5]", "result": 890, "unit": "nM"}]}
{"molecule": "Cc1cccc(OC(=O)c2ccc(NC(=O)Cn3nc(-c4ccc(F)cc4)c(-c4ccncc4)c3C)cc2)c1", "note": "[Example B-2444]", "values": [{"measurement": "U937 Cell IC50, uM or % inhib @ conc. (uM): % inhib", "setting": "[1]; @ 10.0 uM, TNF production, U937 cells stimulated with LPS", "result": 7.0, "unit": "% @"}, {"measurement": "P38 alpha kinase IC50, uM or % inhib @ conc. (uM): % inhib", "setting": "human p38 kinase alpha; @ 10.0 uM", "result": 89.0, "unit": "% @"}]}
